Counter-ions that a name gives are not always drawn.
Key:
[1] = system: IL-1β production in PMA-differentiated THP-1 cells; experiment: Measurement of IL-1β production in PMA-differentiated THP-1 cells (ELISA, 4 hours); assay type: cell-based, human; conditions: Homo sapiens, THP-1, human IL-1β production, assayed using one or more of the described procedures, read-out: NLRP3 hIL1B IC50
Outline: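 THP-1 cells differentiated with PMA (10 μg/ml, 24 h), replated at 1×10^6 cells/ml in RPMI with 2% FBS and exposed to compounds (e.g. 0.1–100 μM, 1% DMSO final) for 4 hours. IL-1β in cell-free supernatant quantified by ELISA against vehicle control.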

[2] = target: T1, human TLR7 (Homo sapiens, UniProt Q9NYK1); experiment: In vitro human TLR7 binding reporter assay (HEK-Blue, NF-kB/AP1-inducible SEAP); assay type: cell-based; conditions: HEK-Blue human TLR7 SEAP reporter cells; activity range classes; read-out: TLR7 Agonist EC50
T1 construct: host or cells: human HEK-Blue cells (HEK293-derived) co-expressing TLR7 and an NF-kB/AP1-inducible SEAP reporter
T1 sequence (Q9NYK1 27-1049): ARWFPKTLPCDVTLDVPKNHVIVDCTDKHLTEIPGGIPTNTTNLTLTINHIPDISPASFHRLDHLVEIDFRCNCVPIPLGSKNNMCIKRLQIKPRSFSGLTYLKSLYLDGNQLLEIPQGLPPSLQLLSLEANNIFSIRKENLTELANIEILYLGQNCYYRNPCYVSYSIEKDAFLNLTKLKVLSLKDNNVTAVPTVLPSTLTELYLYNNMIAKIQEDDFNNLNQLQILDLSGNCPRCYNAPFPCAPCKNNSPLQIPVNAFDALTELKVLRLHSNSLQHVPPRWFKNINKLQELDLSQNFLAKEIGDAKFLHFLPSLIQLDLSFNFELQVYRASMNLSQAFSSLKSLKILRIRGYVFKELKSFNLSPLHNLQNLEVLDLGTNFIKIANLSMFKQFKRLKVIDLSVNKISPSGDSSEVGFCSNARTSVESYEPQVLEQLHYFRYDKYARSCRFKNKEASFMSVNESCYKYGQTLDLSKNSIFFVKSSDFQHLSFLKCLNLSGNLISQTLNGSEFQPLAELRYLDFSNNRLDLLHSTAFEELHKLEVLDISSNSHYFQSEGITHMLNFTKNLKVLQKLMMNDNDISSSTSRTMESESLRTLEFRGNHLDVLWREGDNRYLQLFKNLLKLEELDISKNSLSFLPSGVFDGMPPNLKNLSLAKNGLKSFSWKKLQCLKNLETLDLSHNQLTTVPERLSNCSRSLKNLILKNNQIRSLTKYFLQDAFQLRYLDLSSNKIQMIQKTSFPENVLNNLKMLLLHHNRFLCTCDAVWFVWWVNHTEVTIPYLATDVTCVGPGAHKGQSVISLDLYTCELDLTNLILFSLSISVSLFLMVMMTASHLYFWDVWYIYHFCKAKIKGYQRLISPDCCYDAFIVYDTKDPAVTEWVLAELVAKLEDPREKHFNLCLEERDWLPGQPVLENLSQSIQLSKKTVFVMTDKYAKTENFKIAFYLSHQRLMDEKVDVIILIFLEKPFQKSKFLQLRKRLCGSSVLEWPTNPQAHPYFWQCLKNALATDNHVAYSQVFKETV
Outline: (§1)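 HEK-Blue cells expressing human TLR7 or TLR8 with NF-kB/AP1-inducible SEAP reporter, plated 24 h, then compound-treated 18 h at 37° C, 5% CO2. EC50 normalized to 100% Ymax set by 50 μM reference standard.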

[3] = target: T2, human TLR8 (Homo sapiens, UniProt Q9NR97); experiment: In vitro human TLR8 binding reporter assay (HEK-Blue, NF-kB/AP1-inducible SEAP); assay type: cell-based; conditions: HEK-Blue human TLR8 SEAP reporter cells; activity range classes; read-out: TLR8 Agonist EC50
T2 construct: host or cells: human HEK-Blue cells (HEK293-derived) co-expressing TLR8 and an NF-kB/AP1-inducible SEAP reporter
T2 sequence (Q9NR97 27-1041): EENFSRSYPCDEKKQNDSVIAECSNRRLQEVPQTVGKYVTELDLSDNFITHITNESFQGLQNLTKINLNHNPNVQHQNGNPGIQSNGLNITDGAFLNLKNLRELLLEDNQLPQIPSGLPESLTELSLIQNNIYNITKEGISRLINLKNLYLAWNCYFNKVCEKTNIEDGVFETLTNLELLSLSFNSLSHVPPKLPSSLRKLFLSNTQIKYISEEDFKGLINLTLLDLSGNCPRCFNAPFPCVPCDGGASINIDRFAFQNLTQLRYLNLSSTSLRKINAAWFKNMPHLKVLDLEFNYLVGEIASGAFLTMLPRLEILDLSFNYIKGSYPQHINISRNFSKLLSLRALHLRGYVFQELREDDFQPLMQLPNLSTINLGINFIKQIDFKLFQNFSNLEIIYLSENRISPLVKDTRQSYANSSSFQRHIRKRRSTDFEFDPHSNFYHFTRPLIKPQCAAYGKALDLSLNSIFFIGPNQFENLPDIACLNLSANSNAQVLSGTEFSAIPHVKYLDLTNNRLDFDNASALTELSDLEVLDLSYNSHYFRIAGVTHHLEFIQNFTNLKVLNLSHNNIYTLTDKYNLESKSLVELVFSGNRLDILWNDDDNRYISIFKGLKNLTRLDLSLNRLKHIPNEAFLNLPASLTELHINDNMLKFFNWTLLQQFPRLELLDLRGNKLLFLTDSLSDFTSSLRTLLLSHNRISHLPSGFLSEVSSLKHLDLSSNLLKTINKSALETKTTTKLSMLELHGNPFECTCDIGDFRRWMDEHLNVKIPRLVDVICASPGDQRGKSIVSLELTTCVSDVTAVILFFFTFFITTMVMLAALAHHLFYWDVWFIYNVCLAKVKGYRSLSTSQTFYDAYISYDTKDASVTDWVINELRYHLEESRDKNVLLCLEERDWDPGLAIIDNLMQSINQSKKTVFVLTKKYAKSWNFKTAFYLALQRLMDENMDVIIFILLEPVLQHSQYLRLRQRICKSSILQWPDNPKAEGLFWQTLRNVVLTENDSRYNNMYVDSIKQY
Outline: as §1

| Structure (SMILES) | IC50 [1] | EC50 [2] | EC50 [3] |
| --- | --- | --- | --- |
| Nc1cc(CCCCO)c2ccc(-c3ccn[nH]3)cc2n1 [Compound 218, 4-(2-amino-7-(1H-pyrazol-5-yl)quinolin-4-yl)butan-1-ol] | 1.19 µM | > 100 µM | > 100 µM |
| Nc1cc(NC2CCCCC2)c2ccc(-c3ccn[nH]3)cc2n1 [Compound 281] | 0.58 µM | > 100 µM | > 100 µM |
| COC(=O)NCCNc1cc(N)nc2cc(-c3ccn[nH]3)ccc12 [Compound 205, methyl (2-((2-amino-7-(1H-pyrazol-5-yl)quinolin-4-yl)amino)ethyl)carbamate] | 1.29 µM | > 100 µM | > 100 µM |
| Cc1cn(CCNc2cc(N)nc3cc(-c4ccn[nH]4)ccc23)nn1 [Compound 236] | 2.65 µM | > 100 µM | > 100 µM |
| Nc1cc(OCCCCO)c2ccc(-c3ccn[nH]3)cc2n1 [Compound 172, 4-((2-amino-7-(1H-pyrazol-5-yl)quinolin-4-yl)oxy)butan-1-ol] | 0.41 µM | > 100 µM | > 100 µM |
| Nc1nc2cc(-c3cc[nH]n3)ccc2cc1CCCOCc1ccccc1 [Compound 104, 3-[3-(benzyloxy)propyl]-7-(1H-pyrazol-3-yl)quinolin-2-amine] | 0.69 µM | > 100 µM | > 100 µM |
| CCNC(=O)NCCNc1cc(N)nc2cc(-c3ccn[nH]3)ccc12 [Compound 207, 1-(2-((2-amino-7-(1H-pyrazol-5-yl)quinolin-4-yl)amino)ethyl)-3-ethylurea, TFA] | 1.07 µM | > 100 µM | > 100 µM |
| Nc1cc(OCC2CCOCC2)c2ccc(-c3ccn[nH]3)cc2n1 [Compound 187] | 0.85 µM | > 100 µM | > 100 µM |
| Nc1cc(NCc2ccccn2)c2ccc(-c3ccn[nH]3)cc2n1 [Compound 135] | 0.12 µM | > 100 µM | > 100 µM |
| Nc1cc(NCc2cccc(F)c2)c2ccc(-c3ccn[nH]3)cc2n1 [Compound 260] | 0.32 µM | > 100 µM | > 100 µM |
| Nc1cc(NC[C@H]2COCCN2)c2ccc(-c3ccn[nH]3)cc2n1 [Compound 269] | 1.15 µM | > 100 µM | > 100 µM |
| Nc1cc(N[C@H]2CCC[C@H]2O)c2ccc(-n3cccn3)cc2n1 [Compound 304] | 0.37 µM | > 100 µM | > 100 µM |
| Nc1cc(NCCNC(=O)c2ccccc2)c2ccc(-c3ccn[nH]3)cc2n1 [Compound 146] | 4.07 µM | > 100 µM | > 100 µM |
| Nc1cc(NCc2cccnn2)c2ccc(-n3cccn3)cc2n1 [Compound 309] | 0.42 µM | > 100 µM | > 100 µM |
| CC(C)(O)CCNc1cc(N)nc2cc(-n3cccn3)ccc12 [Compound 301] | 1.01 µM | > 100 µM | > 100 µM |
| Cc1nc(C(=O)NCCNc2cc(N)nc3cc(-c4ccn[nH]4)ccc23)cs1 [Compound 203, N-(2-((2-amino-7-(1H-pyrazol-5-yl)quinolin-4-yl)amino)ethyl)-2-methylthiazole-4-carboxamide] | 0.19 µM | > 100 µM | > 100 µM |
| Nc1cc(OC[C@H](O)CO)c2ccc(-c3ccn[nH]3)cc2n1 [Compound 221] | 0.52 µM | > 100 µM | > 100 µM |

| Structure (SMILES) | IC50 [1] | EC50 [2] | EC50 [3] |
| --- | --- | --- | --- |
| Nc1cc(NCc2cncs2)c2ccc(-c3ccn[nH]3)cc2n1 [Compound 244] | 0.35 µM | > 100 µM | > 100 µM |
| CCCOc1cc(N)nc2cc(-c3ccn[nH]3)ccc12 [Compound 182] | 1.14 µM | > 100 µM | > 100 µM |
| Nc1nc2cc(-c3ccn[nH]3)ccc2cc1C(=O)Nc1cccnc1 [Compound 124] | 14.5 µM | > 100 µM | > 100 µM |
| Nc1cc(OCc2cccnc2)c2ccc(-c3ccn[nH]3)cc2n1 [Compound 190] | 0.66 µM | > 100 µM | > 100 µM |
| Nc1cc(NCC(F)(F)c2ccccn2)c2ccc(-n3cccn3)cc2n1 [Compound 299] | 0.65 µM | > 100 µM | > 100 µM |
| Nc1cc(NCCc2cccnn2)c2ccc(-c3cccs3)cc2n1 [Compound 342, N4-(2-(pyridazin-3-yl)ethyl)-7-(thiophen-2-yl)quinolin-2,4-diamine] | 1.1 µM | > 100 µM | > 100 µM |
| Nc1cc(NC2CCOCC2)c2ccc(-c3ccn[nH]3)cc2n1 [Compound 278] | 1.31 µM | > 100 µM | > 100 µM |
| CCNCCCc1cc2ccc(-c3cc[nH]n3)cc2nc1N [Compound 110, 3-[3-(ethylamino)propyl]-7-(1H-pyrazol-3-yl)quinolin-2-amine] | 1.64 µM | > 100 µM | > 100 µM |
| Nc1cc(N2CC(F)(F)C2)c2ccc(-c3ccn[nH]3)cc2n1 [Compound 271] | 0.36 µM | > 100 µM | > 100 µM |
| Nc1cc(OCc2ccccn2)c2ccc(-c3ccn[nH]3)cc2n1 [Compound 189] | 0.39 µM | > 100 µM | > 100 µM |
| Cc1ncsc1CCNc1cc(N)nc2cc(-c3ccn[nH]3)ccc12 [Compound 239] | 4.83 µM | > 100 µM | > 100 µM |
| Nc1cc(NC[C@H]2CCCN2)c2ccc(-c3cc[nH]n3)cc2n1 [Compound 285] | 1.56 µM | > 100 µM | > 100 µM |
| CNC(=O)CCNc1cc(N)nc2cc(-n3cccn3)ccc12 [Compound 174] | 0.82 µM | > 100 µM | > 100 µM |
| Nc1nc2cc(-c3cc[nH]n3)ccc2cc1CCCCCOCc1ccccc1 [Compound 106, 3-[5-(benzyloxy)pentyl]-7-(1H-pyrazol-3-yl)quinolin-2-amine] | 3.82 µM | > 100 µM | > 100 µM |
| Cc1nc(C(=O)NCCCNc2cc(N)nc3cc(-c4ccn[nH]4)ccc23)c(C)s1 [Compound 210] | 20.8 µM | > 100 µM | > 100 µM |
| Nc1cc(N2CCCOCC2)c2ccc(-c3ccn[nH]3)cc2n1 [Compound 265] | 0.35 µM | > 100 µM | > 100 µM |

Reference: patent US12171756B2, “NLRP3 modulators” (Innate Tumor Immunity, Inc., priority 2017, dated 2024)
